Experimental data from ChEMBL document CHEMBL3400120, “Design, synthesis and biological evaluation of tasiamide B derivatives as BACE1 inhibitors” (Bioorg Med Chem, 2015).
Calls of active or inactive are those of the source. The calls are words filed in the database; no cut-off is given here. Numbered stars: 1 amine (or outer) side, 2 acyl side, 3 side chain; on linkers, the order of the positions; unused ones are H or OH. Square brackets hold non-standard residues; d marks the D form. Peptide text beside a SMILES is read from it. * marks the point of attachment. Ahppa(3S,4S) = O=C(C[C@H](O)[C@H](Cc1ccccc1)N[*:1])[*:2]; dNMeF = CN[C@H](Cc1ccccc1)C(=O)O; NMeQ = CN[C@@H](CCC(N)=O)C(=O)O; Cbz = O=C(OCc1ccccc1)*; Lac = C[C@H](O)C(=O)O

What was measured:
Beta-secretase 1 [1] = biological target: T1, Beta-secretase 1 (Homo sapiens, UniProt P56817); assay: Inhibition of BACE1 (unknown origin) after 90 mins by fluorescence assay
T1 sequence (P56817 whole entry): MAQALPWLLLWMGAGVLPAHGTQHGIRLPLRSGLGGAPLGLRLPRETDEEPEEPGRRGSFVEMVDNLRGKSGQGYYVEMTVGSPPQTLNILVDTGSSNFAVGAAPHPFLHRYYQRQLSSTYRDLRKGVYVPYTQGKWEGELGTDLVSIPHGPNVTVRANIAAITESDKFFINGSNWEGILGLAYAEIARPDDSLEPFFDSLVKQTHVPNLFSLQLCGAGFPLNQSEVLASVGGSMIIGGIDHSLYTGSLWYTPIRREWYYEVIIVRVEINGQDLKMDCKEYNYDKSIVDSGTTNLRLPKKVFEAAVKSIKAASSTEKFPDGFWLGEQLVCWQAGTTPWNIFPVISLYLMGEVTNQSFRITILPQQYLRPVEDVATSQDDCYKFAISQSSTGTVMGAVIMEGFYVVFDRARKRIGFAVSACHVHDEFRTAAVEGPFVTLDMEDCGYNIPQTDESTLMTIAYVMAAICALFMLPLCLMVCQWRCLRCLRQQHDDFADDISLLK

Beta-secretase 1 [2] = biological target: T1, Beta-secretase 1; assay: Inhibition of BACE1 (unknown origin) at 10 uM after 90 mins by fluorescence assay

| SMILES | IC50 (Beta-secretase 1 [1]; read-out: IC50) [µM] | inhibition (Beta-secretase 1 [2]) | IC50 (Beta-secretase 1 [1]) |
| --- | --- | --- | --- |
| CCCN(CCC)C(=O)c1cccc(C(=O)N[C@@H](Cc2ccccc2)[C@@H](O)CC(=O)N[C@@H](CC(C)C)C(=O)N[C@@H](C)C(=O)N(C)[C@H](Cc2ccccc2)C(=O)O)n1 | > 10 | 35% | – |
| COC(=O)[C@H](CC(C)C)NC(=O)C[C@H](O)[C@H](Cc1ccccc1)NC(=O)[C@H](CCC(N)=O)N(C)C(=O)OCc1ccccc1 | > 10 | 24.2% | – |
| CC(C)C[C@H](NC(=O)C[C@H](O)[C@H](Cc1ccccc1)NC(=O)c1cccc(C(=O)N2CCCC2=O)c1)C(=O)N[C@@H](C)C(=O)N(C)[C@H](Cc1ccccc1)C(=O)OCc1ccccc1 | > 10 | 28.4% | – |
| COC(=O)[C@H](C)NC(=O)[C@H](CC(C)C)NC(=O)C[C@H](O)[C@H](Cc1ccccc1)NC(=O)OC(C)(C)C | > 10 | 11.6% | – |
| CC(C)C[C@H](NC(=O)C[C@H](O)[C@H](Cc1ccccc1)NC(=O)OC(C)(C)C)C(=O)N[C@@H](C)C(=O)N(C)[C@H](Cc1ccccc1)C(=O)OCc1ccccc1 | > 10 | 4.44% | – |
| COC(=O)[C@H](C)NC(=O)[C@H](CC(C)C)NC(=O)C[C@H](O)[C@H](Cc1ccccc1)NC(=O)[C@H](CCC(N)=O)N(C)C(=O)[C@@H](NC(=O)OCc1ccccc1)C(C)C (Cbz-V[NMeQ][Ahppa(3S,4S)]LA-OMe) | 2.61 | 90.6% | – |
| CCCN(CCC)C(=O)c1cccc(C(=O)N[C@@H](Cc2ccccc2)[C@@H](O)CC(=O)N[C@@H](CC(C)C)C(=O)N[C@@H](C)C(=O)N(C)[C@H](Cc2ccccc2)C(=O)OCc2ccccc2)n1 | > 10 | 28.7% | – |
| CC(C)C[C@H](NC(=O)C[C@H](O)[C@H](Cc1ccccc1)NC(=O)c1cccc(C(=O)N2CCCC2=O)c1)C(=O)N[C@@H](C)C(=O)N(C)[C@H](Cc1ccccc1)C(=O)O | > 10 | 35.1% | – |
| COC(=O)C[C@H](O)[C@H](Cc1ccccc1)NC(=O)[C@H](CCC(N)=O)N(C)C(=O)OCc1ccccc1 | – | inactive | Not Active |
| CCCN(CCC)C(=O)c1cccc(C(=O)N[C@@H](Cc2ccccc2)[C@@H](O)CC(=O)N[C@@H](CC(C)C)C(=O)N[C@@H](C)C(=O)N(C)[C@H](Cc2ccccc2)C(=O)OCc2ccccc2)c1 | 1.01 | 89.4% | – |
| COC(=O)[C@H](CC(C)C)NC(=O)C[C@H](O)[C@H](Cc1ccccc1)NC(=O)[C@H](CCC(N)=O)N(C)C(=O)[C@@H](NC(=O)OCc1ccccc1)C(C)C | 4.46 | 75% | – |
| COC(=O)[C@@H](Cc1ccccc1)N(C)C(=O)[C@H](C)NC(=O)[C@H](CC(C)C)NC(=O)C[C@H](O)[C@H](Cc1ccccc1)NC(=O)[C@H](CCC(N)=O)N(C)C(=O)[C@@H](NC(=O)OCc1ccccc1)C(C)C | 0.87 | 97% | – |
| COC(=O)[C@H](CC(C)C)NC(=O)C[C@H](O)[C@H](Cc1ccccc1)NC(=O)OC(C)(C)C | > 10 | 25.8% | – |
| CC(C)C[C@H](NC(=O)C[C@H](O)[C@H](Cc1ccccc1)NC(=O)[C@@H](N)Cc1cc2ccccc2[nH]1)C(=O)N[C@@H](C)C(=O)N(C)[C@H](Cc1ccccc1)C(=O)OCc1ccccc1 | > 10 | 33.9% | – |
| COC(=O)[C@@H](Cc1ccccc1)N(C)C(=O)[C@H](C)NC(=O)[C@H](CC(C)C)NC(=O)C[C@H](O)[C@H](Cc1ccccc1)NC(=O)[C@H](CCC(N)=O)N(C)C(=O)OCc1ccccc1 | > 10 | 49.5% | – |
| CC(C)C[C@H](NC(=O)C[C@H](O)[C@H](Cc1ccccc1)NC(=O)OC(C)(C)C)C(=O)N[C@@H](C)C(=O)N(C)[C@H](Cc1ccccc1)C(=O)O | > 10 | 41.7% | – |
| COC(=O)C[C@H](O)[C@H](Cc1ccccc1)NC(=O)[C@H](CCC(N)=O)N(C)C(=O)[C@@H](NC(=O)OCc1ccccc1)C(C)C | > 10 | 22.1% | – |
| CCCN(CCC)C(=O)c1cccc(C(=O)N[C@@H](Cc2ccccc2)[C@@H](O)CC(=O)N[C@@H](CC(C)C)C(=O)N[C@@H](C)C(=O)N(C)[C@H](Cc2ccccc2)C(=O)O)c1 | 0.48 | 97.2% | – |
| COC(=O)[C@H](C)NC(=O)[C@H](CC(C)C)NC(=O)C[C@H](O)[C@H](Cc1ccccc1)NC(=O)[C@H](CCC(N)=O)N(C)C(=O)OCc1ccccc1 | > 10 | 17.5% | – |
| CC(C)C[C@H](NC(=O)C[C@H](O)[C@H](Cc1ccccc1)NC(=O)[C@H](CCC(N)=O)N(C)C(=O)[C@@H](NC(=O)[C@H](C)O)C(C)C)C(=O)N[C@@H](C)C(=O)N(C)[C@H](Cc1ccccc1)C(=O)O (H-[Lac]V[NMeQ][Ahppa(3S,4S)]LA[dNMeF]-OH) | 0.078 | – | – |
